Test results taken from ChEMBL document CHEMBL5241050, “Using membrane perturbing small molecules to target chronic persistent infections” (RSC Med Chem, 2021).
In brackets after ≈: the same amount, converted by molar mass. One block for each molecule: values may come before it.

Assays:
Staphylococcus aureus [1] = test: Antibacterial activity against Staphylococcus aureus assessed as inhibition of bacterial growth by microplate reader analysis; assay type: functional
Enterococcus faecium = test: Antibacterial activity against Enterococcus faecium assessed as inhibition of bacterial growth by microplate reader analysis; assay type: functional
Enterobacter sp. = test: Antibacterial activity against Enterobacter sp. assessed as inhibition of bacterial growth by microplate reader analysis; assay type: functional
Klebsiella pneumoniae = test: Antibacterial activity against Klebsiella pneumoniae assessed as inhibition of bacterial growth by microplate reader analysis; assay type: functional
Pseudomonas aeruginosa [2] = test: Antibacterial activity against Pseudomonas aeruginosa assessed as inhibition of bacterial growth by microplate reader analysis; assay type: functional
Acinetobacter baumannii = test: Antibacterial activity against Acinetobacter baumannii assessed as inhibition of bacterial growth by microplate reader analysis; assay type: functional
Staphylococcus aureus [3] = test: Antibacterial activity against Staphylococcus aureus ATCC 9144 assessed as inhibition of bacterial growth incubated for 24 hrs; assay type: functional
Staphylococcus aureus [4] = test: Antimicrobial activity against vancomycin resistant Staphylococcus aureus assessed as inhibition of bacterial growth by CLSI protocol based microdilution method; assay type: functional
Streptococcus mutans = test: Antibacterial activity against wild type planktonic Streptococcus mutans UA159 assessed as inhibition of bacterial growth incubated for 20 to 24 hrs; assay type: functional; details: time 20-24 hrs
Staphylococcus aureus [5] = test: Antimicrobial activity against methicillin resistant Staphylococcus aureus assessed as inhibition of bacterial growth by CLSI protocol based microdilution method; assay type: functional
Staphylococcus aureus [6] = test: Antimicrobial activity against methicillin resistant Staphylococcus aureus MW2 BAA-1707 persisters assessed as inhibition of bacterial colonies; assay type: functional
[7] = Hemolytic activity in human erythrocytes assessed as hemolysis incubated for 1 hrs; assay type: toxicity, cell-based, Erythrocyte
Pseudomonas aeruginosa [8] = test: Antibacterial activity against Pseudomonas aeruginosa assessed as inhibition of bacterial growth; assay type: functional
Staphylococcus aureus [9] = test: Antibacterial activity against Staphylococcus aureus assessed as inhibition of bacterial growth; assay type: functional
Staphylococcus aureus [10] = test: Antibacterial activity against methicillin resistant Staphylococcus aureus R3889 assessed as inhibition of bacterial growth incubated for 24 hrs by broth microdilution method; assay type: functional
Staphylococcus aureus [11] = test: Antibacterial activity against methicillin resistant Staphylococcus aureus R3890 assessed as inhibition of bacterial growth incubated for 24 hrs by broth microdilution method; assay type: functional
Staphylococcus aureus [12] = test: Antibacterial activity against methicillin resistant Staphylococcus aureus ATCC 33591 assessed as inhibition of bacterial growth incubated for 24 hrs by broth microdilution method; assay type: functional
Pseudomonas aeruginosa [13] = test: Antibacterial activity against Pseudomonas aeruginosa persistent cells assessed as fold reduction in bacterial cell at 68 ug/ml in the presence of ofloxacin relative to ofloxacin alone; assay type: functional; details: dose 68 µg/ml
Pseudomonas aeruginosa [14] = test: Antibacterial activity against Pseudomonas aeruginosa persistent cells assessed as fold reduction in bacterial cell in the presence of ofloxacin relative to ofloxacin alone; assay type: functional
[15] = Cytotoxicity against human hepatocytes assessed as reduction in cell growth by WST-1 assay; assay type: toxicity, cell-based, Hepatocyte; details: read-out: LC50 (the source's name)
Staphylococcus aureus [16] = test: Antibacterial activity against methicillin resistant Staphylococcus aureus MW2 assessed as inhibition of bacterial growth measured after 2 hrs; assay type: functional

MIC (Staphylococcus aureus [1]): 0.02 µg/mL (≈ 0.0547 µM)
MIC (Enterococcus faecium): 0.02 µg/mL (≈ 0.0547 µM)
MIC (Enterobacter sp.): 0.02 µg/mL (≈ 0.0547 µM)
MIC (Klebsiella pneumoniae): 0.02 µg/mL (≈ 0.0547 µM)
MIC (Pseudomonas aeruginosa [2]): 0.02 µg/mL (≈ 0.0547 µM)
MIC (Acinetobacter baumannii): 0.02 µg/mL (≈ 0.0547 µM)
SMILES: Nc1nc(N)c2c(ccc3c2ccn3Cc2ccc(-c3ccccc3)cc2)n1

SMILES: Oc1c(Cl)cc(Cl)cc1Sc1cc(Cl)cc(Cl)c1O [BITHIONOL]
MIC50 (Staphylococcus aureus [3]): 8 µM (≈ 2.85 µg/mL)
MIC (Staphylococcus aureus [4]): 0.5 µg/mL (≈ 1.4 µM)

MIC (Streptococcus mutans): 66.6 µg/mL (≈ 250 µM)
SMILES: C=CCc1ccc(O)c(-c2ccc(O)c(CC=C)c2)c1 [HONOKIOL]

SMILES: O=C(O)c1c(Oc2ccc(I)cc2)c2cc(Cl)ccc2n1Cc1ccc(Cl)cc1
MIC (Staphylococcus aureus [5]): 1 µg/mL (≈ 1.86 µM)
Activity (Staphylococcus aureus [6]): 16 µg/mL
HC50 at 1 h [7]: > 64 µg/mL

SMILES: CCC(C)NCC(O)Cn1c2ccc(Cl)cc2c2cc(Cl)ccc21 (configuration not stated)
MIC (Pseudomonas aeruginosa [8]): 4.63 µg/mL (≈ 12.7 µM)
MIC (Staphylococcus aureus [9]): 4.63 µg/mL (≈ 12.7 µM)

MIC (Staphylococcus aureus [1]): 2 µg/mL (≈ 5.38 µM)
MIC (Enterococcus faecium): 2 µg/mL (≈ 5.38 µM)
MIC (Enterobacter sp.): 2 µg/mL (≈ 5.38 µM)
MIC (Klebsiella pneumoniae): 2 µg/mL (≈ 5.38 µM)
MIC (Pseudomonas aeruginosa [2]): 2 µg/mL (≈ 5.38 µM)
MIC (Acinetobacter baumannii): 2 µg/mL (≈ 5.38 µM)
SMILES: CC(C)c1ccc(Cn2ccc3c4c(N)nc(NC5CC5)nc4ccc32)cc1

SMILES: CCCCCCCCCCN(Cc1cccc2ccccc12)C(=O)[C@@H](N)CCCCN
MIC (Staphylococcus aureus [10]): 4.1 µg/mL (≈ 9.63 µM)
MIC (Staphylococcus aureus [11]): 4.1 µg/mL (≈ 9.63 µM)
MIC (Staphylococcus aureus [12]): 4.1 µg/mL (≈ 9.63 µM)

SMILES: O=C(O)c1c(Sc2ccccc2)c2cc(Cl)ccc2n1Cc1ccc(Cl)cc1
MIC (Staphylococcus aureus [5]): 4 µg/mL (≈ 9.34 µM)
Activity (Staphylococcus aureus [6]): 64 µg/mL
HC50 at 1 h [7]: 47 µg/mL

SMILES: O[C@H](CNCCc1ccc(Cl)cc1Cl)COc1ccccc1
fold change (FC) (Pseudomonas aeruginosa [13]): 7200

SMILES: O[C@H](CNCc1ccccc1)COc1ccc(Cl)cc1Cl
fold change (FC) (Pseudomonas aeruginosa [14]): >2000

SMILES: O=C(O)c1ccc2cc(-c3ccc(O)c(C45CC6CC(CC(C6)C4)C5)c3)ccc2c1 [O-DEMETHYLATED ADAPALENE]
CC50 [15]: 20 µg/mL (≈ 50.2 µM)
MIC (Staphylococcus aureus [16]): 1 µg/mL (≈ 2.51 µM)
HC50 at 1 h [7]: 32 µg/mL

MIC (Streptococcus mutans): 0.65 µg/mL (≈ 1.99 µM)
SMILES: CC(C)(C)c1ccc(CCc2ccc(C(C)(C)C)c(O)c2)cc1O
